In patent publication US20210292306A1, “NOVEL INDOLE DERIVATIVE AND ANTI-CANCER CONPOSITION CONTAINING SAME” (KOREA RESEARCH INSTITUTE OF BIOSCIENCE AND BIOTECHNOLOGY, priority 2016, published 2021):

Experiments:
A431 [1] = assay: Anti-proliferative activity in other cancer cell lines (MTT assay); format: cell-based; conditions: Homo sapiens, A-431, 96 h, A431 (skin), 4 days, mean of three assays
Description: (§1) HeLa cells (ATCC, USA), which are a human cervical cancer cell line, were dispensed into a 96-well plate at 2×10^3 cells/well, and the cells were treated with DMSO or the indole derivatives of the present invention, and then allowed to grow for 4 days. And then, MTT (3-(4,5-Dimethylthiazol-2-yl)-2,5-diphenyltetrazolium bromide) reagent was added to the wells at 10 μl/well. After 2 hours, the absorbance was measured at “OD 450” and statistical values were obtained using the plizm6 program. The data represent mean values of the results of two repeated assays (Table 1).
(§2) Specifically, various cancer cell lines were cultured on a microtiter plate (1-3×10^3 cells/well), and the cells were treated with the indole derivative of the present invention and cultured for 4 days. Cytotoxicity was examined by the MTT assay by the same method as in Experimental Example 1-1, and the IC50 was obtained by the log-dose response curve. The data represent mean values of the results of three repeated assays (Table 2).

A 549 = assay: as above; format: cell-based; conditions: Homo sapiens, A549, 96 h, A 549 (lung), 4 days, mean of three assays
Description: as §1, §2

Wehi 3 = assay: as above; format: cell-based; conditions: 96 h, Wehi 3 (bone marrow), 4 days, mean of three assays
Description: as §1, §2

PC3 [2] = assay: as above; format: cell-based; conditions: Homo sapiens, PC-3, 96 h, PC3 (prostate), 4 days, mean of three assays
Description: as §1, §2

NCIH-1299 = assay: as above; format: cell-based; conditions: Homo sapiens, NCI-H1299, 96 h, NCIH-1299 (lung), 4 days, mean of three assays
Description: as §1, §2

A172 [3] = assay: as above; format: cell-based; conditions: Homo sapiens, A 172, 96 h, A172 (brain), 4 days, mean of three assays
Description: as §1, §2

Hep3B [4] = assay: as above; format: cell-based; conditions: Homo sapiens, 96 h, Hep3B (liver), 4 days, mean of three assays
Description: as §1, §2

HeLa [5] = assay: as above; format: cell-based; conditions: Homo sapiens, 96 h, HeLa (uterine cervix), 4 days, mean of three assays
Description: as §1, §2

K562 [6] = assay: as above; format: cell-based; conditions: Homo sapiens, 96 h, K562 (bone marrow), 4 days, mean of three assays
Description: as §1, §2

A431 [7] = assay: Effect on cell cycle progression (propidium iodine, FACS); format: cell-based, human; conditions: A431, 17 hours
Description: (§3) Several cancer cell lines were cultured on a 12 well plate (3×10^4 cells/well), and treated with DMSO or WCI-1031, an indole derivative of the present invention, for 17 hours, and then added with a propidium iodine dye to stain the cellular DNA, and subjected to measurement using FACS. The concentrations at which cells gathered in the G2/M phase and numbers of the cells represented as percentages were shown (Table 5).

HeLa [8] = assay: as above; format: cell-based, human; conditions: 17 hours
Description: as §3

MCF7 ADR = assay: as above; format: cell-based; conditions: 17 hours
Description: as §3

PC3 [9] = assay: as above; format: cell-based; conditions: PC3, 17 hours
Description: as §3

NCIH-125 = assay: as above; format: cell-based; conditions: NCIH-125, 17 hours
Description: as §3

EL4 = assay: as above; format: cell-based; conditions: EL4, 17 hours
Description: as §3

A172 [10] = assay: as above; format: cell-based; conditions: A172, 17 hours
Description: as §3

Hep3B [11] = assay: as above; format: cell-based; conditions: 17 hours
Description: as §3

K562 [12] = assay: as above; format: cell-based; conditions: K562, 17 hours
Description: as §3

MCF7 [13] = assay: as above; format: cell-based; conditions: MCF7, 17 hours
Description: as §3

K562 [14] = assay: Anti-proliferative activity, multiple drug resistance study (MTT assay), parent line; format: cell-based; conditions: Homo sapiens, 96 h, 4 days, mean of three assays
Description: (§4) HeLa cells (ATCC, USA), which are a human cervical cancer cell line, were dispensed into a 96-well plate at 2×10^3 cells/well, and the cells were treated with DMSO or the indole derivatives of the present invention, and then allowed to grow for 4 days. And then, MTT (3-(4,5-Dimethylthiazol-2-yl)-2,5-diphenyltetrazolium bromide) reagent was added to the wells at 10 μl/well. After 2 hours, the absorbance was measured at “OD 450” and statistical values were obtained using the plizm6 program. The data represent mean values of the results of two repeated assays (Table 1). Specifically, K562 and MCF7 (Bio Evaluation Center, Korea Research Institute of Bioscience and Biotechnology, Korea), and K562/ADR and MCF7/ADR (Bio Evaluation Center, Korea Research Institute of Bioscience and Biotechnology, Korea), which are multiple drug-resistant cell lines of the above mentioned cell lines, respectively, were cultured on a microtiter plate at 1-3×10^3 cells/well.

MCF7 [15] = assay: as above; format: cell-based; conditions: Homo sapiens, 96 h, 4 days, mean of three assays
Description: as §4

## COC(=O)Cn1c(C)c(/C=N/NC(=O)c2cc3c(ccc4ccccc43)o2)c2ccccc21 [WCI-1031, methyl (E)-2-(2-methyl-3-((2-(naphtho[2,1-b]furan-2-carbonyl) hydrazono)methyl)-1H-indole-1-yl)acetate]
A431 [1]
  IC50: 186 nM
A 549
  IC50: 495 nM
Wehi 3
  IC50: 290 nM
PC3 [2]
  IC50: 549 nM
NCIH-1299
  IC50: 376 nM
A172 [3]
  IC50: 1120 nM
Hep3B [4]
  IC50: 503 nM
HeLa [5]
  IC50: 297 nM
K562 [6]
  IC50: 549 nM
A431 [7]
  effect μM (concentration at which cells gathered in the G2/M phase): 0.5 µM
A431 [7]; at the effect concentration
  % of G2/M: 66.32%
HeLa [8]
  effect μM (concentration at which cells gathered in the G2/M phase): 0.5 µM
HeLa [8]; at the effect concentration
  % of G2/M: 82.36%
MCF7 ADR
  effect μM (concentration at which cells gathered in the G2/M phase): 0.5 µM
MCF7 ADR; at the effect concentration
  % of G2/M: 52.37%
PC3 [9]
  effect μM (concentration at which cells gathered in the G2/M phase): 0.5 µM
PC3 [9]; at the effect concentration
  % of G2/M: 65.35%
NCIH-125
  effect μM (concentration at which cells gathered in the G2/M phase): 1.0 µM
NCIH-125; at the effect concentration
  % of G2/M: 48.10%
EL4
  effect μM (concentration at which cells gathered in the G2/M phase): 0.5 µM
EL4; at the effect concentration
  % of G2/M: 50.84%
A172 [10]
  effect μM (concentration at which cells gathered in the G2/M phase): 1.0 µM
A172 [10]; at the effect concentration
  % of G2/M: 70.10%
Hep3B [11]
  effect μM (concentration at which cells gathered in the G2/M phase): 0.5 µM
Hep3B [11]; at the effect concentration
  % of G2/M: 68.13%
K562 [12]
  effect μM (concentration at which cells gathered in the G2/M phase): 0.5 µM
K562 [12]; at the effect concentration
  % of G2/M: 76.72%
MCF7 [13]
  effect μM (concentration at which cells gathered in the G2/M phase): 0.5 µM
MCF7 [13]; at the effect concentration
  % of G2/M: 59.08%
K562 [14]
  IC50: 532 nM
MCF7 [15]
  IC50: 1320 nM
